Earlier results in patent publication US20100260718A1, “IRF-4 AS A TUMOR SUPPRESSOR AND USES THEREOF” (Brandels University, priority 2007, published 2010).

Legend:
[1] = system: primitive CML progenitors
IRF-4 = conditions: patients with CML, downregulated before treatment

IFN-α
toxicity to the more primitive CML progenitors, relative to imatinib [1]: higher toxicity | IRF-4 expression (IRF-4): restored
